From patent publication US10047084B2, “Imidazolone derivatives, pharmaceutical compositions and uses thereof” (BEIJING FORELANDPHARMA CO. LTD., priority 2013, dated 2018)

Legend:
mTOR kinase = mTOR kinase (Homo sapiens (Human), UniProt P42345); test: mTOR kinase activity assay (TR-FRET, GFP-4EBP1 substrate); type: biochemical; details: read-out: Enzyme (mTOR) IC50
Experimental: 1. mTOR Kinase Activity Assay: The inhibition of the mTOR protein kinase activity by the compounds was determined by the enzymatic activity assay in vitro. The detection kit supplied by Invitrogen was used to detect the inhibition of the activity of the mTOR […]. The principle of the assay was as follows: mTOR kinase, fluorescein-labeled substrate and ATP were mixed, and after the reaction, EDTA and terbium-labeled first antibody were added. During the chemical reaction process of the mTOR kinase, the antibody recognized the phosphorylated and fluorescein-labeled substrate, and then the “time-resolved fluorescence resonance energy transfer” (TR-FRET) effect was enhanced. TR-FRET effect was calculated as the ratio of signals from the acceptor fluorescein to signals from the donor terbium. The amount of the antibody bound to the tracer was directly proportional to the amount of the phosphorylated substrate after the reaction. In this way, the kinase activity can be detected. In this assay, the substrate of the mTOR kinase was green fluorescent protein-coupled 4E binding protein 1 (GFP-4EBP1).
1.1 Materials and Instruments:
4-Hydroxyethylpiperazine ethanesulfonic acid (HEPES, Sigma, Cat# SH3375), ethylene glycol-bis-(2-aminoethylether)-tetraacetic acid (EGTA, Sigma, Cat# E3889), manganese chloride (MnCl2, Sigma, Cat# M1787), Tween-20 (Tween-20, Amresco), 1,4-dithiothreitol (DTT, Merck, CB233155),

PC-3 = test: CTG cell survival assay, PC-3; type: cell-based; details: Homo sapiens, PC-3 cells
Source text: (§1) 2. CTG Cell Survival Assay:
(§2) ATP is necessarily produced during the metabolic activities of viable cells, and there is a linear relationship between the content of ATP and the number of viable cells. Cell viability assay by CTG chemiluminescence is a general method for detecting the number of viable cells in the culture cells based on this principle. The addition of the CellTiter-Glo (CTG) reagent may induce cell lysis and produce chemiluminescent signals directly proportional to the amount of ATP in the well-plate, and thereby the cell proliferation activity in the well-plate can be measured by the reading values from the chemiluminescence.
(§3) 2.1 Experimental Materials and Instruments:
(§4) 2.4 Experimental Procedure: • 1.4.1 Cell Thawing: Cryogenic vials were removed from the liquid nitrogen container, directly immersed in a water bath at 37° C., and shaked from time to time to thaw. The cryogenic vials were removed from the water bath at 37° C., and transferred to the biosafe cabinet. Their lids were opened, and the cell suspensions were aspirated with pipettes, added to centrifuge tubes, and then added with more than 10 volumes of culture solution, mixed well; centrifuged for 5 min at 1000 rpm; the supernatant was discarded, and medium containing cell growth was added to resuspend cells. All cell suspensions were seeded to the T25 culture flasks and static cultured in an incubator at 37° C.; the culture solution were changed once on the next day, and continued to be cultured. • 2.4.2 Cell Passaging: After cells were grown to logarithmic phase and were 80%-90% confluent, cells were removed and placed in the biosafe cabinet, the old culture solution was discarded, and the cells were wetted and washed with PBS once or twice. An appropriate amount of 0.25% Trypsin-EDTA solution was added to the culture flasks. The flasks were placed in the carbon dioxide incubator at 37° C. for 2-5 min. An appropriate amount of cell growth medium containing 10% PBS was added to terminate the digestion, lightly swished, and transferred to the centrifuge tubes and centrifuged for 5 min at 1000 rpm. The cells were prepare (into cell suspensions for passaging and experimental use. • 2.4.3 Cell Plating • 2.4.3.1 A cell suspension was prepared: After cells were grown to logarithmic phase and were 80%-90% confluent, the cells were removed to the biosafe cabinet, and the old culture solution was discarded, then the cells were wetted and washed with PBS once or twice. An appropriate amount of 0.25% Trypsin-EDTA solution was added to the culture flask. The flask was placed in a carbon dioxide incubator at 37° C. for 2-5 min. An appropriate amount of the cell growth medium containing 10% PBS was added to terminate digestion, and was lightly swished. The solution was transferred to a centrifuge tube, centrifuged for 5 min at 1000 rpm, and counted. […] Secondly, 20 uM of the compound to be tested was diluted with the cell growth medium containing 0.2% DMSO in 3-fold dilution to obtain 9 concentrations, and there were 10 concentration gradients in total. • 2.4.4.3 Addition of the compounds to be tested: the prepared gradient dilution solutions of compounds to be tested were taken and added to the cell culture plate at 100 ul/well; at this point, the maximum concentration of compounds to be tested was 10 uM, and the concentration of DMSO was 0.1%.

MV-4-11 = test: CTG cell survival assay, MV-4-11; type: cell-based; details: Homo sapiens, MV4-11, MV-4-11 cells
Source text: as §1, §2, §3
2.1.1 Experimental Materials: compounds to be tested, cell basal culture medium, RPMI Medium 1640 (Invitrogen, Cat#11875-093), fetal calf serum (FBS): Hyclone FETAL BOVINE SERUM DEFINED (Invitrogen, Cat#SH30070.03), antibiotics: Penicilin Streptomycin (Invitrogen, Cat#15140-122), phosphate buffer (Corning Cellgro, Cat#R21-040-CV), cell digestive solution: 0.25% Trypsin-EDTA (Invitrogen, Cat#25200-056), CTG detection kit: Promega, Cat#G7571, flat-bottom 96-well black bottom plate: NUNC, Cat#165305, T25 culture flask: NUNC, Cat#156367, T75 culture flask: NUNC, Cat#156439
2.2 Experimental Instruments: Carbon Dioxide Incubator, SANYO-MCO-20AIC, Biosafe Cabinet: BSC-1360-LIIA2, Table-Top High-Speed Refrigerated Centrifuge: SorvallST 16R, Microplate Rapid Oscillator: QB-9001, M3 Reader: SpectraMax M3, Microscope: OLYMPUS-CKX41/CKX31.
2.3 Preparation of Solutions and Reagents: Formulation of cell growth medium: RPMI Medium 1640+10% FBS+antibiotics, others: trypsin digestive solution, phosphate buffer (PBS), DMSO, CTG detection kit.
2.4 Experimental Procedure: • 1.4.1 Cell Thawing: Cryogenic vials were removed from the liquid nitrogen container, directly immersed in a water bath at 37° C., and shaked from time to time to thaw. The cryogenic vials were removed from the water bath at 37° C., and transferred to the biosafe cabinet. Their lids were opened, and the cell suspensions were aspirated with pipettes, added to centrifuge tubes, and then added with more than 10 volumes of culture solution, mixed well; centrifuged for 5 min at 1000 rpm; the supernatant was discarded, and medium containing cell growth was added to resuspend cells. All cell suspensions were seeded to the T25 culture flasks and static cultured in an incubator at 37° C.; the culture solution were changed once on the next day, and continued to be cultured. • 2.4.2 Cell Passaging: After cells were grown to logarithmic phase and were 80%-90% confluent, cells were removed and placed in the biosafe cabinet, the old culture solution was discarded, and the cells were wetted and washed with PBS once or twice. An appropriate amount of 0.25% Trypsin-EDTA solution was added to the culture flasks. The flasks were placed in the carbon dioxide incubator at 37° C. for 2-5 min. An appropriate amount of cell growth medium containing 10% PBS was added to terminate the digestion, lightly swished, and transferred to the centrifuge tubes and centrifuged for 5 min at 1000 rpm. The cells were prepare (into cell suspensions for passaging and experimental use. • 2.4.3 Cell Plating • 2.4.3.1 A cell suspension was prepared: After cells were grown to logarithmic phase and were 80%-90% confluent, the cells were removed to the biosafe cabinet, and the old culture solution was discarded, then the cells were wetted and washed with PBS once or twice. An appropriate amount of 0.25% Trypsin-EDTA solution was added to the culture flask. The flask was placed in a carbon dioxide incubator at 37° C. for 2-5 min. An appropriate amount of the cell growth medium containing 10% PBS was added to terminate digestion, and was lightly swished. The solution was transferred to a centrifuge tube, centrifuged for 5 min at 1000 rpm, and counted. […]

SK-BR3/BT474 = test: CTG cell survival assay, SK-BR3/BT474; type: cell-based; details: SK-BR3/BT474 cells
Source text: as §1, §2, §3, §4

Sequence of mTOR kinase (P42345 1360-2549): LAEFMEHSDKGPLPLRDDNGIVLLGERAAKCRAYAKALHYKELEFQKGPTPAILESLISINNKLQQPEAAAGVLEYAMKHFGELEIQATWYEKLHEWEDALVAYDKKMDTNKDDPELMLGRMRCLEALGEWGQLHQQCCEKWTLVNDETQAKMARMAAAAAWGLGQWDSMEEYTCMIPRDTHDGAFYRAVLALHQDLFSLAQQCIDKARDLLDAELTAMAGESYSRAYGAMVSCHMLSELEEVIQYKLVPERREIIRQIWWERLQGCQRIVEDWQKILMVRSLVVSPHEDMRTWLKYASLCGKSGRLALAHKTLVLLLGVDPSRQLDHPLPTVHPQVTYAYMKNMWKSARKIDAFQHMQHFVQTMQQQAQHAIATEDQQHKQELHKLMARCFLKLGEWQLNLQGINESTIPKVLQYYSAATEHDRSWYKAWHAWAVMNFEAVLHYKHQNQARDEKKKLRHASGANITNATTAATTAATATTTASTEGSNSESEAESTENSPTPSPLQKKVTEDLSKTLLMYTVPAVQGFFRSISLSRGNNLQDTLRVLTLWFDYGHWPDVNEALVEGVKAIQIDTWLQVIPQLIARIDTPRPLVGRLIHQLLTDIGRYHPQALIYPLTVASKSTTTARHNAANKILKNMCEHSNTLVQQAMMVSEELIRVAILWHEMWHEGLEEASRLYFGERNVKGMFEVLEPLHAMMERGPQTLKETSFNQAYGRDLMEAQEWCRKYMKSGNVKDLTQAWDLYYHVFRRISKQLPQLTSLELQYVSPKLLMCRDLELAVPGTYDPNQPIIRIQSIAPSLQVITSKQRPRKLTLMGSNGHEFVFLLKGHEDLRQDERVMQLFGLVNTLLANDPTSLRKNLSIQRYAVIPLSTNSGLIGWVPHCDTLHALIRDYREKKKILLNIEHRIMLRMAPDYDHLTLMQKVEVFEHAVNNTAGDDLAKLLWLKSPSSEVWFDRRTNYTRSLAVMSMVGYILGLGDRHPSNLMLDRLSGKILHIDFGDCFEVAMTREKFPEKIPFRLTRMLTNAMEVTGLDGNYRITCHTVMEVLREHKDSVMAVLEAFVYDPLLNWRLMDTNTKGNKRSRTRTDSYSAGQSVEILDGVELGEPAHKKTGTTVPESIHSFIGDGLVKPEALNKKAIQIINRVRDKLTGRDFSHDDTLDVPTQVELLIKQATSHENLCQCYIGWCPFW

SMILES | IC50 (mTOR kinase) [µM] | EC50 (PC-3) [µM] | EC50 (MV-4-11) [µM] | EC50 (SK-BR3/BT474) [µM]
Cn1cc(-c2ccc(-c3ccc4ncc5c(c4c3)n(C3CCCN(C(=O)c4nc[nH]n4)C3)c(=O)n5C)cn2)cn1 (stereo not drawn) [Example 2, 1-(1-(1H-1,2,4-triazole-3-carbonyl)piperidin-3-yl)-3-methyl-8-(6-(1-methyl-1H-pyrazol-4-yl)pyridin-3-yl)-1H-imidazo[4,5-c]quinolin-2(3H)-one] | 0.1 to 1 | – | – | –
Cn1cc(-c2ccc(-c3ccc4ncc5c(c4c3)n(C3CCN(C(=O)C(F)(F)F)C3)c(=O)n5C)cn2)cn1 (stereo not drawn) [Example 16, 3-methyl-8-(6-(1-methyl-1H-pyrazol-4-yl)pyridin-3-yl)-1-(1-(2,2,2-trifluoroacetyl)pyrrolidin-3-yl)-1H-imidazo[4,5-c]quinolin-2(3H)-one] | 0.1 to 1 | < 1 | – | –
Cn1ccc(-c2ccc(-c3ccc4ncc5c(c4c3)n([C@H]3CCN(S(C)(=O)=O)C3)c(=O)n5C)cn2)n1 [Example 47, (S)-3-methyl-8-(6-(1-methyl-1H-pyrazol-3-yl)pyridin-3-yl)-1-(1-(methanesulfonyl)pyrrolidin-3-yl)-1H-imidazo[4,5-c]quinolin-2(3H)-one] | – | 0.03 | < 0.1 | 0.04
Cn1cc(-c2ccc(-c3ccc4ncc5c(c4n3)n([C@@H]3CCCN(S(C)(=O)=O)C3)c(=O)n5C)cn2)cn1 [Example 49, (R)-3-methyl-8-(6-(1-methyl-1H-pyrazol-4-yl)pyridin-3-yl)-1-(1-(methanesulfonyl)piperidin-3-yl)-1H-imidazo[4,5-c][1,5]naphthyridin-2(3H)-one] | – | 0.01 | < 0.02 | 0.02
Cn1cc(-c2ccc(-c3ccc4ncc5c(c4n3)n([C@H]3CCN(S(C)(=O)=O)C3)c(=O)n5C)cn2)nn1 [Example 50, (S)-3-methyl-8-(6-(1-methyl-1H-1,2,3-triazol-4-yl)pyridin-3-yl)-1-(1-(methanesulfonyl)pyrrolidin-3-yl)-1H-imidazo[4,5-c][1,5]naphthyridin-2(3H)-one] | – | 0.02 | < 0.03 | 0.03
Cn1cc(-c2ccc(-c3ccc4ncc5c(c4c3)n([C@H]3CC[C@@H](O)CC3)c(=O)n5C)cn2)nn1 [Example 51, 1-((1s,4s)-4-hydroxycyclohexyl)-3-methyl-8-(6-(1-methyl-1H-1,2,3-triazol-4-yl)pyridin-3-yl)-1H-imidazo[4,5-c]quinolin-2(3H)-one] | – | < 0.01 | < 0.02 | 0.01
CCNC(=O)N1CCC[C@@H](n2c(=O)n(C)c3cnc4ccc(-c5ccc(-c6cnn(C)c6)nc5)cc4c32)C1 [Example 55, (R)—N-ethyl-3-(3-methyl-8-(6-(1-methyl-1H-pyrazol-4-yl)pyridin-3-yl)-2-oxo-2,3-dihydro-1H-imidazo[4,5-c]quinolin-1-yl)piperidine-1-formamide] | – | 0.3 | 0.8 | 0.3
Cn1cc(-c2ccc(-c3ccc4ncc5c(c4c3)n([C@@H]3CCCN(S(=O)(=O)C(F)(F)F)C3)c(=O)n5C)cn2)cn1 [Example 56, (R)-3-methyl-8-(6-(1-methyl-1H-pyrazol-4-yl)pyridin-3-yl)-1-(1-((trifluoromethyl)sulfonyl)piperidin-3-yl)-1H-imidazo[4,5-c]quinolin-2(3H)-one] | – | < 0.03 | 0.06 | 0.07
Cn1cc(-c2ccc(-c3ccc4ncc5c(c4c3)n(C3CCN(S(C)(=O)=O)CC3)c(=O)n5C)cn2)cn1 [Example 59, 3-methyl-8-(6-(1-methyl-1H-pyrazol-4-yl)pyridin-3-yl)-1-(1-(methanesulfonyl)piperidin-4-yl)-1H-imidazo[4,5-c]quinolin-2(3H)-one] | – | 0.03 | 0.1 | < 0.1
Cn1cc(-c2ccc(-c3ccc4ncc5c(c4c3)n(C3CCN(S(C)(=O)=O)CC3)c(=O)n5C)cn2)nn1 [Example 60, 3-methyl-8-(6-(1-methyl-1H-1,2,3-triazol-4-yl)pyridin-3-yl)-1-(1-(methanesulfonyl)piperidin-4-yl)-1H-imidazo[4,5-c]quinolin-2(3H)-one] | – | < 0.03 | < 0.1 | 0.04
Cn1cc(-c2ccc(-c3ccc4ncc5c(c4c3)n(C3CC4CCC(C3)N4S(C)(=O)=O)c(=O)n5C)cn2)nn1 (stereo not drawn) [Example 61, 3-methyl-8-(6-(1-methyl-1H-1,2,3-triazol-4-yl)pyridin-3-yl)-1-(8-(methanesulfonyl)-8-azabicyclo[3.2.1]octan-3-yl)-1H-imidazo[4,5-c]quinolin-2(3H)-one] | – | < 0.01 | < 0.02 | < 0.01
Cn1cc(-c2ccc(-c3ccc4ncc5c(c4c3)n(C3CC4CCC(C3)N4S(C)(=O)=O)c(=O)n5C)cn2)cn1 (stereo not drawn) [Example 62, 3-methyl-8-(6-(1-methyl-1H-pyrazol-4-yl)pyridin-3-yl)-1-(8-(methanesulfonyl)-8-azabicyclo[3.2.1]octan-3-yl)-1H-imidazo[4,5-c]quinolin-2(3H)-one] | – | < 0.01 | < 0.02 | < 0.02
